This is an account of results in patent US5213788A, “Physically and chemically stabilized polyatomic clusters for magnetic resonance image and spectral enhancement” (priority 1991, dated 1993).

Series [1] concerns red cells. Particulars: cited from earlier work.
Series [2] deals with VX2 carcinomas. The series can be described thus: Histochemical platinum stain of tumor tissues after intraarterial perfusion. The series is classed as in vivo, rabbit. Conditions: selective arterial perfusion. As to the method:
At 5 to 15 minutes postinjection, the animals were sacrificed, their lungs removed and fixed with intratracheal buffered formalin, tissue sections cut at 8 microns thickness, and the sections stained using a newly devised method for platinum which comprises a microwave-augmented iron-type stain (60° C.×2 minute×3 cycles) using a 1:1 mixture of 2% ferriferrocyanide reagent and 4% HCl. […] To those skilled in the art, additional evidence for selective lung localization, was obtained by injecting intravenously, analogous (subembolizing) heparincoated small microparticles containing encapsulated amphotericin B, into identical mice, homogenizing the lungs, and documenting an 8-fold increment in drug levels over native amphotericin B (deoxycholate formulation, Fungizone; Squibb) recovered at 1 to 3 hours postinjection.
(§1) Additional documentation for maintenance of the cisplatin-carrier paired-ion complex in vivo was obtained as follows. […] Animals were sacrificed at 15 minutes, and the tumors and organs were homogenized extracted and analyzed by atomic absorption for tissue platinum concentrations, as shown in Table 1.
Additionally, histochemical platinum stains were performed on the tumor tissues, as described in Example 7.
Microinhomogeneities of tissue heating represent a major problem in hyperthermia treatment of tumors. […]

A short description of series [3]: Complexation of exogenously added calcium ions (ionized calcium analyzer). Format: binding.
The subject of series [4] is CBA/J mice. As to the kind of experiment: Tetany / toxicity following intravenous injection. The series is classed as in vivo. Conditions: 10 mg/25 gm body weight.
The subject of series [5] is VX2 carcinomas of the right hind limb. The series can be described thus: Tissue platinum content by atomic absorption after selective intraarterial perfusion. Particulars: 15 mg cisplatin per rabbit intraarterially over 15 minutes. The series is classed as in vivo. Here is the method: as §1
The nature of series [6]: Blood and total body clearance. Format: in vivo.
Series [7] deals with BRO-strain human malignant melanomas. The series can be described thus: MR imaging of human malignant melanoma xenografts. Format: in vivo, human tumor in Swiss nude mice. As to the method: The strong paramagnetic metal ion, gadolinium (Gd^+3), was chelated stoichiometrically to DTPA-Dextran 70 polymer, whose preparation is described in Example 1, paragraph 2 (improved formulation). Swiss nude mice were inoculated with BRO-strain human malignant melanomas, and these were allowed to grow to a 1-1.5 cm diameter. Moderately T1-weighted MR imaging (TR=500 msec, TE=40 msec) was performed in a standard Diasonics™ medical imager and a 30-cm RF head coil, before and after intravenous injection of equivalent doses of Gd-DTPA-Dextran-70 (0.03 mmol Gd/kg) or Gd-DTPA (0.1 mmol/kg) contrast agent. […] It will also be recognized that much lower doses of the stronger superparamagnetics (including doses below about 0.01 mmol/kg, versus 0.1 mmol/kg for Gd-DTPA) can be used to obtain effective MRI contrast enhancement; and that much faster, more heavily T1-weighted pulse sequences can be implemented in the presence of intramolecularly superparamagnetic polyatomic complex-carrier polymer conjugates or paired-ion complexes.
A general note: Xenograft models place foreign cells or tissue in a host animal.

For series [8] the following is noted: usually; cited from earlier work.
Series [9] has as its system tumor interstitium. Particulars: in vivo; cited from earlier work.
The conditions of series [10]: small-molecular contrast agents; cited from earlier work.
Series [11] relates to malignant breast tumor. Particulars: by 30 minutes postcontrast; cited from earlier work.

As for `[O]=[51Cr](=[O])([O-])[O-]` [^51 Chromium, ^51 CrO4^-2], the “Average rate of elution from red cells” value in series [1] is 0.93 % per day.
In the case of `N.N.[Cl][Pt][Cl]` [cisplatin, cis-dichlorodiamine platinum], the “Intracellular tumor-cell platinum staining” value in series [2] was “aggregated staining was absent”.
Consider “Cisplatin-DTPA-Dextran (70,000 MW) [DTPA-dextran cisplatin]”, for which the “Complexation of exogenously added calcium ions by the DTPA groups” value in series [3] is listed as “reduction in the complexation of exogenously added calcium ions”. Besides, the “Tetany / toxicity following intravenous injection” value in series [4] is on record as “elimination of tetany”. For the same compound, in series [5], the “Platinum content, Kidney” value is given as 2.92 ng/mg of tissue, wet weight and the “Platinum content, Liver” value is given as 3.47 ng/mg of tissue, wet weight. In addition, in series [5] (Ipsilateral), the “Platinum content, Blood” value is 2.14 ng/mg of tissue, wet weight; the “Platinum content, Muscle” value is on record as 0.29 ng/mg of tissue, wet weight; the “Platinum content, Tumor” value is listed as 10.81 ng/mg of tissue, wet weight.
Take “gadolinium diethylenetriamine pentaacetic acid [Gd-DTPA]”: the “Blood clearance t1/2” value in [6] was 20 min. The “Fading of tumor enhancement” value in [7] (by one hour, 0.1 mmol/kg) was “completely faded”. Moreover, in series [7] (intravenous, Gd-DTPA-dextran 0.03 mmol Gd/kg, Gd-DTPA 0.1 mmol/kg), the “Time to begin to optimally enhance the tumors” value stood at 10 min. In addition, the Retained fraction result in series [8] is on record as “less than 0.5%”. In series [9], the “Retention in tumor interstitium” value was 10 to 45 min. Besides, in [10], the “Initial biodistribution, share of total body water” value was “ca. 35%”.
Consider “gadolinium diethylenetriamine pentaacetic acid dimeglumine [Gd-DTPA dimeglumine]”, for which the “Tumor fading, in words” value in series [11] is reported as “almost complete fading (tumor clearance)”.
